The RepoRT retention time repository
Counter-ions that a name gives are not always drawn.

Assay: HILIC, Merck SeQuant ZIC-HILIC, 25 °C, 0.25 mL/min; A: water + 16 mM ammonium formate; B: acetonitrile + 0.1% formic acid, pH 3; gradient (min/%B) 0/97 2/97 10/70 15/10 17/10 18/97 25/97
Settings: stereoisomer not certain

Structure (SMILES)	LC retention time
OCC(O)c1ccc(O)c(O)c1 (stereo not given) [3-4-DIHYDROXYPHENYLGLYCOL]	8.79 min
O=C1CCNC(=O)N1 [DIHYDROURACIL]	2.13 min
NC(CSSCC(N)C(=O)O)C(=O)O (stereo not given) [CYSTINE]	15.4 min
NC(=O)CC[C@H](N)C(=O)O [L-Glutamine]	14.1 min
NC(=O)C[C@H](N)C(=O)O [L-Asparagine]	14.2 min
O=C(O)CCCCCCCCCCCO [OMEGA-HYDROXYDODECANOATE]	1.7 min
NC(CS)C(=O)NCC(=O)O (stereo not given) [CYS-GLY_2M]	16.3 min
O=c1ccn(C2CC(O)C(COP(=O)(O)O)O2)c(=O)[nH]1 (stereo not given) [DEOXYURIDINE-MONOPHOSPHATE]	13.4 min
NCC(N)C(=O)O (stereo not given) [2-3-DIAMINOPROPIONATE]	16.1 min
CNCC(=O)O [SARCOSINE]	13.6 min
CCCCC(CC)COC(=O)c1ccccc1C(=O)OCC(CC)CCCC (stereo not given) [BIS(2-ETHYLHEXYL)PHTHALATE]	1.48 min
NC(CCOC(=O)CCC(=O)O)C(=O)O (stereo not given) [O-SUCCINYL-HOMOSERINE]	13.3 min
NCCP(=O)(O)O [(2-AMINOETHYL)PHOSPHONATE]	15 min
CC(CCC(=O)O)C1CCC2C3C(O)CC4CC(O)CCC4(C)C3CC(O)C12C (stereo not given) [CHOLATE]	2.18 min
CC(=O)C1C(=O)C=C(C)OC1=O (stereo not given) [Dehydroacetic acid]	1.56 min
CC(CCC(=O)O)C1CCC2C3CCC4CC(O)CCC4(C)C3CC(O)C12C (stereo not given) [deoxycholic acid]	1.98 min
C=C(C)C1CCC2(C(=O)O)CCC3(C)C(CCC4C5(C)CCC(O)C(C)(C)C5CCC43C)C12 (stereo not given) [Betulinic acid]	1.58 min
CC(=O)NC1C(O)CC(O)(C(=O)O)OC1C(O)C(O)CO (stereo not given) [N-Acetylneuraminic acid]	13.9 min
NCCCCN=C(N)N [AGMATINE SULFATE]	17.2 min
O=C(O)c1ccc(=O)[nH]c1 [6-HYDROXYNICOTINATE]	6.01 min
CCCCCCCCCCCCCCCCCCOCC(O)COP(=O)([O-])OCC[N+](C)(C)C (stereo not given) [C18_LysoPAF]	11.3 min
Cn1cnc2[nH]c(=O)[nH]c(=O)c21 [7-Methylxanthine]	2.21 min
OCCc1c[nH]c2ccccc12 [INDOLE-3-ETHANOL]	1.82 min
CCCCCCCCCCCCCC(=O)OC(CO)COP(=O)(O)OCCN (stereo not given) [14-0_LysoPE]	10.3 min

Structure (SMILES)	LC retention time
CCCCCCCCCCCCCCCC(=O)OCC(COP(=O)(O)OCCN)OC(=O)CCCCCCCCCCCCCCC (stereo not given) [DIPALMITOYL-PHOSPHOETHANOLAMINE]	9.35 min
CC(=O)C1(O)CCC2C3CCC4=CC(=O)CCC4(C)C3C(O)CC21C (stereo not given) [21-Deoxycortisol]	1.68 min
CSCCC(NC(C)=O)C(=O)O (stereo not given) [N-ACETYLMETHIONINE]	2.18 min
NCCc1cc(O)c(O)cc1O [6-HYDROXYDOPAMINE]	12.6 min
Nc1ccn(C2CC(O)C(COP(=O)([O-])OP(=O)([O-])[O-])O2)c(=O)n1 (stereo not given) [DEOXYCYTIDINE-DIPHOSPHATE]	15.2 min
O=C(O)CC(=O)O [MALONATE]	6.35 min
CCC(C)C(=O)C(=O)O (stereo not given) [3-METHYL-2-OXOVALERATE]	1.73 min
CS(=N)(=O)CCC(N)C(=O)O (stereo not given) [METHIONINE SULFOXIMINE]	14.4 min
NCCS(=O)O [HYPOTAURINE]	13.9 min
Cc1ccccc1C(=O)NCC(=O)O [2-Methylhippuric acid (ortho-Methylhippuric acid)]	1.97 min
O=C(O)c1cc(O)cc(O)c1 [3-5-Dihydroxybenzoic acid]	8.46 min
N[C@@H](CO)C(=O)O [L-Serine]	14.2 min
c1ccc(CNc2ccccc2)cc1 [N-benzylaniline]	1.54 min
Cc1cccnc1 [3-Methylpyridine (3-Picoline)]	2.16 min
NC1(C(=O)O)CCCCC1 [1-Aminocyclohexanecarboxylic acid]	11.7 min
NC(=O)[C@@H](N)Cc1c[nH]c2ccccc12 [L-TRYPTOPHANAMIDE]	11.7 min
CC(C)C(O)C(=O)O (stereo not given)	1.94 min
Cc1cc2nc3c(=O)[nH]c(=O)nc-3n(CC(O)C(O)C(O)COP(=O)(O)OP(=O)(O)OCC3OC(n4cnc5c(N)ncnc54)C(O)C3O)c2cc1C (stereo not given) [FAD]	13.8 min
O=c1c(OC2OC(CO)C(O)C(O)C2O)c(-c2ccc(O)c(O)c2)oc2cc(O)cc(O)c12 [Quercetin-3-beta-D-glucoside]	9.37 min
O=C(O)c1ccc2ccccc2n1 [2-QUINOLINECARBOXYLATE]	2.13 min
NCCc1ccccc1 [PHENETHYLAMINE]	10.2 min
O=CC[C@@H](O)[C@H](O)[C@H](O)CO [2-DEOXY-D-GLUCOSE]	10.2 min
NC(CSCC(=O)O)C(=O)O (stereo not given) [S-CARBOXYMETHYLCYSTEINE]	14.4 min
OCC1OC(OCC2OC(O)(CO)C(O)C2O)C(O)C(O)C1O (stereo not given) [PALATINOSE]	13.6 min

Structure (SMILES)	LC retention time
O=C(O)CCCCCC(=O)O [pimelic acid]	2.14 min
O=C(O)c1cccnc1C(=O)O [QUINOLINATE]	8.88 min
NCCCC[C@H](N)C(=O)O [L-Lysine]	16.1 min
CC(=O)C(=O)O [pyruvic acid]	5.68 min
CC(C)(N)C(=O)O [2-AMINOISOBUTYRATE]	13 min
CC(CCC(=O)O)C1CCC2C3C(O)CC4CC(O)CCC4(C)C3CCC12C (stereo not given) [CHENODEOXYCHOLATE]	1.85 min
Nc1ncnc2c1ncn2C1OC(COP(=O)(O)OP(=O)(O)O)C(O)C1O (stereo not given) [ADENOSINE 5'-DIPHOSPHATE]	14.7 min
Nc1nc2c(ncn2C2CC(O)C(COP(=O)(O)OP(=O)(O)OP(=O)(O)O)O2)c(=O)[nH]1 (stereo not given) [DGTP]	15.7 min
C[S+](CCC(N)C(=O)[O-])CC1OC(n2cnc3c(N)ncnc32)C(O)C1O (stereo not given) [S-ADENOSYLMETHIONINE]	15.9 min
O=c1ccn(C2OC(CO)C(O)C2O)c(=O)[nH]1 (stereo not given) [URIDINE]	9 min
Nc1nc2c(ncn2C2OC(COP(=O)(O)OP(=O)(O)OC3OC(CO)C(O)C(O)C3O)C(O)C2O)c(=O)[nH]1 (stereo not given) [GUANOSINE DIPHOSPHATE MANNOSE]	15.2 min
O=C(O)c1ccc(CO)o1 [5-hydroxymethyl-2-furancarboxylic acid]	4.31 min
NC(Cc1cc(I)c(Oc2ccc(O)cc2)c(I)c1)C(=O)O [3-5-DIIODO-L-THYRONINE]	9.3 min
NCCCCN [PUTRESCINE]	17.4 min
O=C(O)CCCCCCCC(=O)O [AZELATE]	1.84 min
CC(C)C(=O)O [ISOBUTYRATE]	2.11 min
NCC[Se][Se]CCN [SELENOCYSTAMINE]	16.9 min
O=C(O)C(O)c1ccc(O)c(O)c1 (stereo not given) [3-4 DIHYDROXYMANDELATE]	10.3 min
O=CCc1c[nH]c2ccccc12 [INDOLEACETALDEHYDE]	10 min
Nc1nc2c(ncn2C2OC(COP(=O)(O)O)C(O)C2O)c(=O)[nH]1 (stereo not given) [GUANOSINE MONOPHOSPHATE]	14.7 min
CC(=O)NCCCC(=O)O [4-ACETAMIDOBUTANOATE]	2.87 min
NC(C(=O)O)c1ccccc1 (stereo not given) [2-Phenylglycine]	11.8 min
O=C(O)c1cc(O)ccc1O [2-5-DIHYDROXYBENZOATE]	2.14 min
NC(CCC(=O)O)C(=O)O (stereo not given) [GLUTAMATE]	14.2 min

Structure (SMILES)	LC retention time
Nc1nc2c(ncn2C2OC(CO)C(O)C2O)c(=O)[nH]1 (stereo not given) [GUANOSINE]	11.4 min
O=c1[nH]c(=O)c2ncn(C3OC(COP(=O)(O)O)C(O)C3O)c2[nH]1 (stereo not given) [XANTHOSINE-MONOPHOSPHATE]	14.4 min
CCCCCCCCC=CCCCCCCCC(=O)OCC(O)COP(=O)(O)O (stereo not given) [18-1_LysoPA]	9.21 min
NCC(O)c1ccccc1 (stereo not given) [PHENYLETHANOLAMINE]	10.9 min
COC(=O)C(=O)OC [Dimethyl oxalate]	2.24 min
CC1C(=O)Nc2ccccc21 (stereo not given) [3-METHYL-2-OXINDOLE]	1.73 min
CC(CCC(=O)O)C1CCC2C3C(O)C(O)C4CC(O)CCC4(C)C3CCC12C (stereo not given) [5b-cholanic acid-3a-6a-7a-TRIOL]	2.19 min
CCCCCCCCC=CCCCCCCCC(=O)OCC(CO)OC(=O)CCCCCCCC=CCCCCCCCC (stereo not given) [1-2-dioleoyl-sn-glycerol]	1.49 min
NCCCC(=O)O [GAMMA-AMINOBUTYRATE]	13.5 min
Nc1nc2nc[nH]c2c(=O)[nH]1 [GUANINE]	10.8 min
NC(CCCC(N)C(=O)O)C(=O)O (stereo not given) [LL-2-6-DIAMINOHEPTANEDIOATE]	15.4 min
Cc1ncc(C[n+]2csc(CCO)c2C)c(N)n1 [THIAMINE]	14.3 min
N[C@@H](Cc1ccccc1)C(=O)O [L-Phenylalanine]	11.1 min
O=C(O)Cc1cnc[nH]1 [4-IMIDAZOLEACETATE]	13.6 min
O=c1cc[nH]c(=O)[nH]1 [URACIL]	2.24 min
NC(CCS)C(=O)O (stereo not given) [HOMOCYSTEINE]	12.4 min
Nc1ccccc1C(=O)O [ANTHRANILATE]	1.84 min
O=C[C@H](O)[C@H](O)CO [D-(-)-Erythrose]	8.22 min
Cn1c(=O)c2c(ncn2C)n(C)c1=O [CAFFEINE]	1.87 min
CC(=O)C1CCC2C3CC=C4CC(OS(=O)(=O)O)CCC4(C)C3CCC12C (stereo not given) [pregnenolone sulfate]	2.05 min
Cn1c(=O)c2[nH]c(=O)[nH]c2n(C)c1=O [1-3-Dimethyluric acid]	2.19 min
OCC1OC(OCC2OC(OCC3OC(OC4(CO)OC(CO)C(O)C4O)C(O)C(O)C3O)C(O)C(O)C2O)C(O)C(O)C1O (stereo not given) [STACHYOSE]	15.1 min
COC(=O)Cc1ccc(O)cc1 [Methyl 4-hydroxyphenylacetate]	1.67 min
